Assay results: PubChem BioAssay (NCI)
Values joined by “and” are separate entries in the source; they are usually repeats but may differ in a detail not shown here. Identical values can stand only once.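 A five-concentration, 48-hour dose response in 96-well plates underlies each endpoint, interpolated linearly between surrounding concentrations. Here, GI50 denotes the concentration required for 50% inhibition of growth. Definition used: TGI = concentration required for complete inhibition of growth.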

Experiments:
Assay in all cases: growth of human tumour cells (NCI), 48 h
[1] = tested on: ACHN renal
[2] = tested on: HCC-2998 colon
[3] = tested on: HS 578T breast
[4] = tested on: HT29 colon
[5] = tested on: LOX IMVI melanoma
[6] = tested on: MCF7 breast
[7] = tested on: OVCAR-4 ovarian
[8] = tested on: PC-3 prostate
[9] = tested on: SF-268 CNS
[10] = tested on: SF-295 CNS
[11] = tested on: SF-539 CNS
[12] = tested on: SNB-19 CNS
[13] = tested on: SW-620 colon
[14] = tested on: U251 CNS
[15] = tested on: UACC-257 melanoma
[16] = tested on: MDA-N

SMILES	TGI [1]	TGI [2] [µM]	TGI [3] [µM]	TGI [4]	TGI [5] [µM]	TGI [6]	TGI [7]	TGI [8]	TGI [9]	TGI [10]	TGI [11] [µM]	TGI [12]	TGI [13]	TGI [14]	TGI [15]	TGI [16]	GI50 [9]	GI50 [13]
CCNC(=S)Nc1c(C#N)c2n(c1C(=O)OCC)CCCCC2	> 100 µM	> 100	> 100	> 100 µM	> 100	> 100 µM	> 100 µM	> 100 µM	> 100 µM	> 100 µM	> 100	> 100 µM	> 100 µM	> 100 µM	> 100 µM	–	–	–
CC(=O)N1N=C(c2ccccc2Nc2ccccc2C2=NN(C(C)=O)C(c3ccccc3)O2)OC1c1ccccc1 (stereo not given)	> 100 µM	> 100	–	> 100 µM	> 100	> 100 µM	> 100 µM	> 100 µM	–	> 100 µM	–	> 100 µM	> 100 µM	> 100 µM	–	> 100 µM	–	–
N#Cc1nc(-c2ccccc2O)oc1N	> 100 µM	–	> 100	> 100 µM	> 100	> 100 µM	–	> 100 µM	> 100 µM	–	–	> 100 µM	> 100 µM	> 100 µM	> 100 µM	> 100 µM	–	–
c1ccc2c(c1)ccc1nc3ccccn3c12	> 100 µM	> 100	> 100	> 100 µM	–	> 100 µM	–	> 100 µM	> 100 µM	> 100 µM	> 100	> 100 µM	> 100 µM	> 100 µM	> 100 µM	–	–	–
CC1=C(S(=O)c2ccc(C)cc2)CCC2(CCCCO2)O1 (stereo not given)	> 100 µM	> 100	> 100	> 100 µM	> 100	> 100 µM	> 100 µM	> 100 µM	> 100 µM	> 100 µM	–	> 100 µM	> 100 µM	> 100 µM	> 100 µM	–	–	–
CC(C)(C)OC(=O)N(CCCCNC(=O)c1ccccc1)CCCNC(=O)c1ccccc1	> 100 µM	> 100	> 100	> 100 µM	–	> 100 µM	> 100 µM	> 100 µM	> 100 µM	> 100 µM	> 100	> 100 µM	> 100 µM	> 100 µM	> 100 µM	–	–	–
O=C1C=Cc2c1csc2Br	86.5 µM	–	> 100	> 100 µM	60.2	95.9 µM	> 100 µM	> 100 µM	> 100 µM	> 100 µM	–	> 100 µM	48.8 µM	> 100 µM	> 100 µM	> 100 µM	–	–
COC(=O)C(=O)c1cc2ccccc2n1S(=O)(=O)c1ccccc1	> 100 µM	> 100	–	> 100 µM	> 100	> 100 µM	> 100 µM	> 100 µM	> 100 µM	> 100 µM	> 100	> 100 µM	> 100 µM	> 100 µM	> 100 µM	> 100 µM	–	–
CC1(C)CC(=O)C(CC2C(=O)c3ccccc3C2=O)C(=O)C1C(=O)C(=O)Nc1cccc2ccc(O)cc12 (stereo not given)	> 100 µM	> 100	> 100	> 100 µM	> 100	> 100 µM	> 100 µM	> 100 µM	> 100 µM	> 100 µM	> 100	> 100 µM	> 100 µM	> 100 µM	> 100 µM	–	–	–
CC(=O)N1N=C(c2ccc3ccccc3c2O)CC1c1ccc(Cl)cc1Cl (stereo not given)	> 100 µM	> 100	> 100	> 100 µM	–	> 100 µM	> 100 µM	> 100 µM	93.1 µM	> 100 µM	50.6	–	> 100 µM	> 100 µM	> 100 µM	> 100 µM	–	–
O=C1CC(NCCCNC2CC(=O)c3c(Br)sc(Br)c32)c2c(Br)sc(Br)c21 (stereo not given)	3.55 µM	–	> 44.6	4.96 µM	–	–	12.7 µM	3.9 µM	11.7 µM	14.3 µM	8.56	6.75 µM	> 100 µM	2.82 µM	> 35.8 µM	5.54 µM	–	–
COc1cc(CC(C)N[C@@H](C)c2ccccc2)cc(OC)c1 (stereo not given in full)	21.1 µM and > 100 µM	–	> 100	13.1 µM and > 100 µM	–	20.1 µM and > 100 µM	22.4 µM and > 100 µM	14.2 µM and > 100 µM	25.8 µM and > 100 µM	21.5 µM and > 100 µM	> 100	21.3 µM and > 100 µM	26.3 µM and > 100 µM	19.8 µM and > 100 µM	19.5 µM and > 100 µM	16.3 µM and > 100 µM	12.3 µM and > 100 µM	11.7 µM and > 100 µM
c1ccc(-c2sc(-c3ccccc3)c3c2C2CCC3C2)cc1	> 100 µM	–	70.6	34.5 µM	> 100	–	> 100 µM	72.6 µM	> 100 µM	> 100 µM	67.7	> 100 µM	> 100 µM	> 100 µM	> 100 µM	> 100 µM	–	–
c1csc(-c2cscc2-c2cccs2)c1	> 100 µM	82.6	> 100	> 100 µM	> 100	49.5 µM	> 100 µM	39.9 µM	> 100 µM	> 100 µM	51.4	> 100 µM	> 100 µM	> 100 µM	> 100 µM	–	–	–
O=C(/C=C/c1cc(F)ccc1F)OCCc1ccccc1	> 100 µM	> 100	> 100	> 100 µM	–	> 100 µM	47.4 µM	> 100 µM	> 100 µM	–	> 100	> 100 µM	> 100 µM	> 100 µM	> 100 µM	> 100 µM	–	–
COc1ccc2[nH]c3c(C)c4ccnc(NCCCN(C)CCCN)c4c(C)c3c2c1	0.514 µM	0.376	–	0.17 µM	–	0.313 µM	0.442 µM	0.712 µM	–	0.66 µM	0.28	0.403 µM	–	–	2.95 µM	0.496 µM	–	–
O=C(Nc1sccc1S(=O)(=O)c1ccc(Cl)cc1)c1ccc(Cl)cc1Cl	> 100 µM	–	> 100	> 100 µM	> 100	> 100 µM	> 100 µM	> 100 µM	> 100 µM	> 100 µM	> 100	> 100 µM	> 100 µM	> 100 µM	> 100 µM	–	–	–
